In ChEMBL document CHEMBL4507295 (2021):

Legend:
[1] = biological target: Ephrin type-A receptor 1 (Homo sapiens) (UniProt P21709); conditions: Compound concentration 1000.0 nM
[2] = biological target: Serine/threonine-protein kinase Nek5 (Homo sapiens) (UniProt Q6P3R8); conditions: Compound concentration 1000.0 nM
[3] = biological target: 5-hydroxytryptamine receptor 2B (Homo sapiens) (UniProt P41595); conditions: Compound concentration 10.0 uM
[4] = biological target: Interleukin-1 receptor-associated kinase 1 (Homo sapiens) (UniProt P51617); conditions: Compound concentration 1000.0 nM
[5] = biological target: Casein kinase II subunit alpha' (Homo sapiens) (UniProt P19784); conditions: Compound concentration 1000.0 nM
[6] = biological target: Death-associated protein kinase 3 (Homo sapiens) (UniProt O43293); conditions: Compound concentration 1000.0 nM
[7] = biological target: Muscle, skeletal receptor tyrosine-protein kinase (Homo sapiens) (UniProt O15146); conditions: Compound concentration 1000.0 nM
[8] = biological target: Death-associated protein kinase 2 (Homo sapiens) (UniProt Q9UIK4); conditions: Compound concentration 1000.0 nM
[9] = biological target: Activin receptor type-1-like (Homo sapiens) (UniProt P37023); conditions: Compound concentration 1000.0 nM
[10] = biological target: Beta-2 adrenergic receptor (Homo sapiens) (UniProt P07550); conditions: Compound concentration 10.0 uM
[11] = biological target: Mitogen-activated protein kinase kinase kinase 5 (Homo sapiens) (UniProt Q99683); conditions: Compound concentration 1000.0 nM
[12] = biological target: T1, Alpha-2B adrenergic receptor (Homo sapiens) (UniProt P18089); conditions: Compound concentration 10.0 uM
T1 sequence (whole entry): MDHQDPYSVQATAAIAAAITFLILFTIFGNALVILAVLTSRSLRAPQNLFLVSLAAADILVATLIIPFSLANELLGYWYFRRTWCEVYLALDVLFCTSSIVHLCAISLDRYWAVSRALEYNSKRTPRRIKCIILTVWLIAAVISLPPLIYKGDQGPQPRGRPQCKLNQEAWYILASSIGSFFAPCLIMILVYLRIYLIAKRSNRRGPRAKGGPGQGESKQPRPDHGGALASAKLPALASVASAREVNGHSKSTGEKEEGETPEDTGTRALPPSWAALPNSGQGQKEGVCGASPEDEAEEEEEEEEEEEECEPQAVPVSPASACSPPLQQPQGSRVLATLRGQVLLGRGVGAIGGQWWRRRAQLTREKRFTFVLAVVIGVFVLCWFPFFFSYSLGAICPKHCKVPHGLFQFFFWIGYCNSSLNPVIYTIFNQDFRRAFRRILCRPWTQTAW

[13] = test system: Mast/stem cell growth factor receptor Kit (Homo sapiens), P10721 [L576P]; conditions: Compound concentration 1000.0 nM
[14] = biological target: Eukaryotic translation initiation factor 2-alpha kinase 1 (Homo sapiens) (UniProt Q9BQI3); conditions: Compound concentration 1000.0 nM
[15] = biological target: Megakaryocyte-associated tyrosine-protein kinase (Homo sapiens) (UniProt P42679); conditions: Compound concentration 1000.0 nM
[16] = biological target: Serine/threonine-protein kinase SIK1 (Homo sapiens) (UniProt P57059); conditions: Compound concentration 1000.0 nM
[17] = test system: Epidermal growth factor receptor (Homo sapiens), P00533 [L858R]; conditions: Compound concentration 1000.0 nM
[18] = biological target: Mitotic checkpoint serine/threonine-protein kinase BUB1 (Homo sapiens) (UniProt O43683); conditions: Compound concentration 1000.0 nM
[19] = biological target: Kappa-type opioid receptor (Homo sapiens) (UniProt P41145); conditions: Compound concentration 10.0 uM
[20] = biological target: Serine/threonine-protein kinase WNK1 (Homo sapiens) (UniProt Q9H4A3); conditions: Compound concentration 1000.0 nM
[21] = biological target: Cyclin-dependent kinase 14 (Homo sapiens) (UniProt O94921); conditions: Compound concentration 1000.0 nM
[22] = biological target: Calcium/calmodulin-dependent protein kinase type 1 (Homo sapiens) (UniProt Q14012); conditions: Compound concentration 1000.0 nM
[23] = biological target: Serine/threonine-protein kinase OSR1 (Homo sapiens) (UniProt O95747); conditions: Compound concentration 1000.0 nM
[24] = biological target: 5-hydroxytryptamine receptor 1B (Homo sapiens) (UniProt P28222); conditions: Compound concentration 10.0 uM
[25] = biological target: Serine/threonine-protein kinase 4 (Homo sapiens) (UniProt Q13043); conditions: Compound concentration 1000.0 nM
[26] = biological target: Misshapen-like kinase 1 (Homo sapiens) (UniProt Q8N4C8); conditions: Compound concentration 1000.0 nM
[27] = biological target: Receptor-type tyrosine-protein kinase FLT3 (Homo sapiens) (UniProt P36888); conditions: Compound concentration 1000.0 nM
[28] = biological target: Histamine H1 receptor (Homo sapiens) (UniProt P35367); conditions: Compound concentration 10.0 uM
[29] = biological target: Interleukin-1 receptor-associated kinase 4 (Homo sapiens) (UniProt Q9NWZ3); conditions: Compound concentration 1000.0 nM
[30] = biological target: Serine/threonine-protein kinase N2 (Homo sapiens) (UniProt Q16513); conditions: Compound concentration 1000.0 nM
[31] = biological target: Receptor tyrosine-protein kinase erbB-2 (Homo sapiens) (UniProt P04626); conditions: Compound concentration 1000.0 nM
[32] = biological target: Bone morphogenetic protein receptor type-1A (Homo sapiens) (UniProt P36894); conditions: Compound concentration 1000.0 nM
[33] = test system: Epidermal growth factor receptor (Homo sapiens), P00533 [T790M]; conditions: Compound concentration 1000.0 nM
[34] = biological target: cGMP-dependent protein kinase 2 (Homo sapiens) (UniProt Q13237); conditions: Compound concentration 1000.0 nM
[35] = biological target: Serine/threonine-protein kinase MRCK alpha (Homo sapiens) (UniProt Q5VT25); conditions: Compound concentration 1000.0 nM
[36] = biological target: Serine/threonine-protein kinase D1 (Homo sapiens) (UniProt Q15139); conditions: Compound concentration 1000.0 nM
[37] = biological target: GABA-A receptor; anion channel (Rattus norvegicus) (UniProt O09028+P15431+P18506+P18508+P19969+P20236+P23574+P23576+P28471+P28473+P30191+P62813+P63079+P63138+Q91ZM7+Q9ES14); conditions: Compound concentration 10.0 uM
[38] = biological target: Serine/threonine-protein kinase SBK1 (Homo sapiens) (UniProt Q52WX2); conditions: Compound concentration 1000.0 nM

Chain of Serine/threonine-protein kinase N2 (Homo sapiens) (Q16513 whole entry, looked up): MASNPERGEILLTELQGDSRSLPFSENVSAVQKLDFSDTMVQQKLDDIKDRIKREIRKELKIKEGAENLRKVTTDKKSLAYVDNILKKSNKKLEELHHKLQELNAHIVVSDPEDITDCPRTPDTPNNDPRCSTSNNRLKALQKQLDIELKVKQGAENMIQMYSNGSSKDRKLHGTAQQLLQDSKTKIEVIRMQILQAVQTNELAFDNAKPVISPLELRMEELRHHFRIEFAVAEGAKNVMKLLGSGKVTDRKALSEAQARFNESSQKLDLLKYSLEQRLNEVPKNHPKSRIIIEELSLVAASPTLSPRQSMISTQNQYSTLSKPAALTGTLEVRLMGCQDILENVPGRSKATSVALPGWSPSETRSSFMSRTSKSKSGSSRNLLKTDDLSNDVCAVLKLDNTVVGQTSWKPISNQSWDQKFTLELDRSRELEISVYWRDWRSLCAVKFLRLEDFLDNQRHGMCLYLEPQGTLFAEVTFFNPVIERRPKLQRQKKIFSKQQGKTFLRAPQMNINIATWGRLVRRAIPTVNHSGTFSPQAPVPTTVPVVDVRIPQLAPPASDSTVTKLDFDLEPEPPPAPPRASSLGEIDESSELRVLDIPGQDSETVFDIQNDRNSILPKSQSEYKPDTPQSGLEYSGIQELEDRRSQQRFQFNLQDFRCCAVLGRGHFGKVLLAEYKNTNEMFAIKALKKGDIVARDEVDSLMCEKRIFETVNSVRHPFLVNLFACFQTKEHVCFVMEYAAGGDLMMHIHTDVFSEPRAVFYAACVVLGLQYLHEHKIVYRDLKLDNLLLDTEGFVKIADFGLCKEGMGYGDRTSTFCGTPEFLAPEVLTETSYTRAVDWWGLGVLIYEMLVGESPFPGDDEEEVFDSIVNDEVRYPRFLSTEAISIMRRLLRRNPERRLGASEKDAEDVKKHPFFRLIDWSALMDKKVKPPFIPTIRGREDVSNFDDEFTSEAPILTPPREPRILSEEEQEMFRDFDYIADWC
Chain of Cyclin-dependent kinase 14 (Homo sapiens) (O94921 whole entry): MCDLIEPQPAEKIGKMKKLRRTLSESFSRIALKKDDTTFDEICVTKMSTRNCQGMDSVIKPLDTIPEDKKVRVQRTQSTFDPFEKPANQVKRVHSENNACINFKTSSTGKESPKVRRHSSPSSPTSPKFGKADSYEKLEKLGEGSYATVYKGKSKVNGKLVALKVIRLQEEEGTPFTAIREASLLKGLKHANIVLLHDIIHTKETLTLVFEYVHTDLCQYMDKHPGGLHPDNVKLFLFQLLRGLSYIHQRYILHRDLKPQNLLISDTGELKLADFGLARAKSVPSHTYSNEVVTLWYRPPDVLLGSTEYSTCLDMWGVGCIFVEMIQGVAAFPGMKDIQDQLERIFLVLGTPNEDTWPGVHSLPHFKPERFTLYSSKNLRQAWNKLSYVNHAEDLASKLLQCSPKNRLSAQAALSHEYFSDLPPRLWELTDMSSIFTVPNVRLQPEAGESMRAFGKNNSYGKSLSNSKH
Chain of Eukaryotic translation initiation factor 2-alpha kinase 1 (Homo sapiens) (Q9BQI3 whole entry): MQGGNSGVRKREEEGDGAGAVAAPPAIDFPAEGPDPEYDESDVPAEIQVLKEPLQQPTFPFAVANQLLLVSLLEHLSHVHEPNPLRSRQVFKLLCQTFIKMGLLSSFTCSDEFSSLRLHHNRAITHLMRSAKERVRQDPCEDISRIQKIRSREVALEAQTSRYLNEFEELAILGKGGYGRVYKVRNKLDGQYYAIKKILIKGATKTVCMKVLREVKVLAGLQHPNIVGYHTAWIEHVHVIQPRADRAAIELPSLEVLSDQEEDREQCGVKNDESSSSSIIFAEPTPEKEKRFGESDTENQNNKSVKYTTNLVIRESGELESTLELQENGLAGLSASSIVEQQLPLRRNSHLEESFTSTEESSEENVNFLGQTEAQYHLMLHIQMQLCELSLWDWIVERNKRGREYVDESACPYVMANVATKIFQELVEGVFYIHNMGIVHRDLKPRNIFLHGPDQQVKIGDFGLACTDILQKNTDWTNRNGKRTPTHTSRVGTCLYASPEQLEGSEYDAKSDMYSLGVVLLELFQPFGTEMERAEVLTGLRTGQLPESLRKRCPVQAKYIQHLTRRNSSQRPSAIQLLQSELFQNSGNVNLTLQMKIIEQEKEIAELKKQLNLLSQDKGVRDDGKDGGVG
Chain of Interleukin-1 receptor-associated kinase 1 (Homo sapiens) (P51617 whole entry, looked up): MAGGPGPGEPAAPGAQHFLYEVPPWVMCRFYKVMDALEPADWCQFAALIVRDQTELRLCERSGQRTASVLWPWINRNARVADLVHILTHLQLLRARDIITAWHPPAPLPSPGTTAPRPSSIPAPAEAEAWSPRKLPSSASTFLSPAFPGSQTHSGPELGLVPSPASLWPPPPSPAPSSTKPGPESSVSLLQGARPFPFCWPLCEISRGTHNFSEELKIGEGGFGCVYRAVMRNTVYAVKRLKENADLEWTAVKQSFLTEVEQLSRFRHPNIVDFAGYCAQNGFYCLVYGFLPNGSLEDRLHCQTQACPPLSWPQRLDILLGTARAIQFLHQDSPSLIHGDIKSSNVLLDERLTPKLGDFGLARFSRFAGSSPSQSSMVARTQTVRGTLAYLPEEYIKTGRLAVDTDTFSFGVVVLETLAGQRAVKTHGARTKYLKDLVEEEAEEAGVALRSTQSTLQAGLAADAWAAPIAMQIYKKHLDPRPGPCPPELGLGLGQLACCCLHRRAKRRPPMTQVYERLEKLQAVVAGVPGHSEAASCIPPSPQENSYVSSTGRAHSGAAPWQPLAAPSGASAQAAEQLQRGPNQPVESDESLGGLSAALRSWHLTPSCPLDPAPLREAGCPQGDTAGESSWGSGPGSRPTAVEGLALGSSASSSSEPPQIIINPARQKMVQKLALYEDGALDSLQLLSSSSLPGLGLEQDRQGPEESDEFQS
Chain of Misshapen-like kinase 1 (Homo sapiens) (Q8N4C8 whole entry, looked up): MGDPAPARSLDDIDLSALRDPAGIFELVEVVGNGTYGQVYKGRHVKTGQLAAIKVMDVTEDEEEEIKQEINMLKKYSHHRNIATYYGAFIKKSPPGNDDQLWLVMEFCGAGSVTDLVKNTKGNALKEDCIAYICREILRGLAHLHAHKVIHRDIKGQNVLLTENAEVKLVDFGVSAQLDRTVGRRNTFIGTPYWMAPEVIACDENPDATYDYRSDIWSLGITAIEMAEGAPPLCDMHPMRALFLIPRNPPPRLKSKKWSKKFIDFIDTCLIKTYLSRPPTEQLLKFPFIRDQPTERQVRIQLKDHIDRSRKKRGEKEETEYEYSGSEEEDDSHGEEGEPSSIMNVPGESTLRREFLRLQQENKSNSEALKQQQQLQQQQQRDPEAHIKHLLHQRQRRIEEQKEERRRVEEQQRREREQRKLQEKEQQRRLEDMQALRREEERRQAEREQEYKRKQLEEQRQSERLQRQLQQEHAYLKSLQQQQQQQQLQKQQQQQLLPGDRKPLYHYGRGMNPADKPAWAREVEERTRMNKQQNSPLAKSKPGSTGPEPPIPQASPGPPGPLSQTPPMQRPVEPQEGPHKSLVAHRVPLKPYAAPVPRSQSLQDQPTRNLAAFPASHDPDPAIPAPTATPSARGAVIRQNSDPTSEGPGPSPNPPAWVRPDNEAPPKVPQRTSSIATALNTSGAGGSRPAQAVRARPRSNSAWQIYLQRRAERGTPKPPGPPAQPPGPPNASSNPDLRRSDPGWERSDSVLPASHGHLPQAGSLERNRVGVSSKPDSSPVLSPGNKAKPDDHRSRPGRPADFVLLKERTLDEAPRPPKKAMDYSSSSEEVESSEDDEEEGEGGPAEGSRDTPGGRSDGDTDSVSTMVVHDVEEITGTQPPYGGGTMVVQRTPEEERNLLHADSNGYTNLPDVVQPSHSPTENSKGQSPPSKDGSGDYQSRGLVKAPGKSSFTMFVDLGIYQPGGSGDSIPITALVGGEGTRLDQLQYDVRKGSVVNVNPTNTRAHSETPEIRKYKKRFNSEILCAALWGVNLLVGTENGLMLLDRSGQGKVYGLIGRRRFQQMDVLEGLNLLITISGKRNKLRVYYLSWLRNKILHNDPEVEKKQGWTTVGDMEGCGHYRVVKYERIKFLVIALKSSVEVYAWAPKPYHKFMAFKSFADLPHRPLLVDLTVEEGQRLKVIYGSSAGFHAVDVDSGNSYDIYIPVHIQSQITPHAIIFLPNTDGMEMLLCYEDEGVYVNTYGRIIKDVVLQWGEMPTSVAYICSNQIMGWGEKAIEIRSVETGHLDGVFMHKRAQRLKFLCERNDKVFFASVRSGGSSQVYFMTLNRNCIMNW
Chain of 5-hydroxytryptamine receptor 2B (Homo sapiens) (P41595 whole entry): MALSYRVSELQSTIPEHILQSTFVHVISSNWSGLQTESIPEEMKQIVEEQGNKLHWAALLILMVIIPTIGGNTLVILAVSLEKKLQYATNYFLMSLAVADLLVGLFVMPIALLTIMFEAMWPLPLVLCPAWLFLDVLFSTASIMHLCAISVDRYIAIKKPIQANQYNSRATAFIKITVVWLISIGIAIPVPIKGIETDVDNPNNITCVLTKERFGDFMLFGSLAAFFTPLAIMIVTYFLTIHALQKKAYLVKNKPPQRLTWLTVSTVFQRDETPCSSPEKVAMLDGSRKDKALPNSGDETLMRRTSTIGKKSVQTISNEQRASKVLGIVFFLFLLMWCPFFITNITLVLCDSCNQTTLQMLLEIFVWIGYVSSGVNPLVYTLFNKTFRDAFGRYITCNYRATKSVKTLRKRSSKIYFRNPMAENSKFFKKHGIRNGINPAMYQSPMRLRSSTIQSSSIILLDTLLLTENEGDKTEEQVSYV
Chain of Casein kinase II subunit alpha' (Homo sapiens) (P19784 whole entry, looked up): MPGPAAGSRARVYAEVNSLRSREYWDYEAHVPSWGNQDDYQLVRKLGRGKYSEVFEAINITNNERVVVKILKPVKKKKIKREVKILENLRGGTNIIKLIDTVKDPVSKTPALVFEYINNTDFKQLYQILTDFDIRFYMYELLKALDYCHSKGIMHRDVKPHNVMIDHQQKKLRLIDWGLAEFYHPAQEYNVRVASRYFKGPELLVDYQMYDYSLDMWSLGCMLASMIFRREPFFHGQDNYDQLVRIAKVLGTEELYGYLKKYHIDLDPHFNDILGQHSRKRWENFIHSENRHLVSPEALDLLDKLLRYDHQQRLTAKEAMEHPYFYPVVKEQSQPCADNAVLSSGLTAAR

N#CC1(c2ccccn2)CCN(Cc2cc(C(=O)N3CCCC3)c(=O)n3ccccc23)CC1
inactive: residual activity [1] 83% | residual activity [2] 82% | inhibition [3] 5.44% | residual activity [4] 100% | residual activity [5] 98% | residual activity [6] 86% | residual activity [7] 90% | residual activity [8] 94% | residual activity [9] 100% | inhibition [10] 15.8% | residual activity [11] 80% | inhibition [12] -2.99% | residual activity [13] 100% | residual activity [14] 83% | residual activity [15] 76% | residual activity [16] 100% | residual activity [17] 87% | residual activity [18] 100% | inhibition [19] 46.8% | residual activity [20] 100% | residual activity [21] 100% | residual activity [22] 100% | residual activity [23] 100% | inhibition [24] 13% | residual activity [25] 88% | residual activity [26] 89% | residual activity [27] 98% | inhibition [28] 9.7% | residual activity [29] 100% | residual activity [30] 88% | residual activity [31] 95% | residual activity [32] 74% | residual activity [33] 90% | residual activity [34] 100% | residual activity [35] 84% | residual activity [36] 95% | inhibition [37] 23.2% | residual activity [38] 89%

N#CC1(c2ccccn2)CCN(Cc2cc(C(=O)O)c(=O)n3ccccc23)CC1 [MSD-M1PAM]
inactive: residual activity [1] 100% | residual activity [2] 100% | inhibition [3] 3.23% | residual activity [4] 77% | residual activity [5] 86% | residual activity [6] 95% | residual activity [7] 96% | residual activity [8] 99% | residual activity [9] 95% | inhibition [10] 13.9% | residual activity [11] 75% | inhibition [12] -6.86% | residual activity [13] 100% | residual activity [14] 86% | residual activity [15] 84% | residual activity [16] 92% | residual activity [17] 86% | residual activity [18] 100% | inhibition [19] 47.3% | residual activity [20] 97% | residual activity [21] 100% | residual activity [22] 76% | residual activity [23] 79% | inhibition [24] 2.72% | residual activity [25] 100% | residual activity [26] 92% | residual activity [27] 80% | inhibition [28] 28.4% | residual activity [29] 83% | residual activity [30] 100% | residual activity [31] 96% | residual activity [32] 97% | residual activity [33] 100% | residual activity [34] 95% | residual activity [35] 100% | residual activity [36] 87% | inhibition [37] 20.2% | residual activity [38] 83%
